Paper PMC5400251, “Effect of quinoline based 1,2,3-triazole and its structural analogues on growth and virulence attributes of Candida albicans” (PLoS ONE, 2017)
Read-outs that look alike come from different tables or passages of the source.

What was measured:
[1] = biological target: T1, plasma membrane H+ ATPase (Candida albicans, UniProt P28877); test: Proton extrusion measurement (H+ efflux); type: cell-based, C. albicans D27 (FLC-susceptible)
T1 construct: endogenous in cells; host or cells: C. albicans ATCC 90028; clinical isolates C. albicans D27 (FLC-susceptible) and D15.9 (FLC-resistant); mid-log phase whole cells
T1 sequence (P28877 whole entry): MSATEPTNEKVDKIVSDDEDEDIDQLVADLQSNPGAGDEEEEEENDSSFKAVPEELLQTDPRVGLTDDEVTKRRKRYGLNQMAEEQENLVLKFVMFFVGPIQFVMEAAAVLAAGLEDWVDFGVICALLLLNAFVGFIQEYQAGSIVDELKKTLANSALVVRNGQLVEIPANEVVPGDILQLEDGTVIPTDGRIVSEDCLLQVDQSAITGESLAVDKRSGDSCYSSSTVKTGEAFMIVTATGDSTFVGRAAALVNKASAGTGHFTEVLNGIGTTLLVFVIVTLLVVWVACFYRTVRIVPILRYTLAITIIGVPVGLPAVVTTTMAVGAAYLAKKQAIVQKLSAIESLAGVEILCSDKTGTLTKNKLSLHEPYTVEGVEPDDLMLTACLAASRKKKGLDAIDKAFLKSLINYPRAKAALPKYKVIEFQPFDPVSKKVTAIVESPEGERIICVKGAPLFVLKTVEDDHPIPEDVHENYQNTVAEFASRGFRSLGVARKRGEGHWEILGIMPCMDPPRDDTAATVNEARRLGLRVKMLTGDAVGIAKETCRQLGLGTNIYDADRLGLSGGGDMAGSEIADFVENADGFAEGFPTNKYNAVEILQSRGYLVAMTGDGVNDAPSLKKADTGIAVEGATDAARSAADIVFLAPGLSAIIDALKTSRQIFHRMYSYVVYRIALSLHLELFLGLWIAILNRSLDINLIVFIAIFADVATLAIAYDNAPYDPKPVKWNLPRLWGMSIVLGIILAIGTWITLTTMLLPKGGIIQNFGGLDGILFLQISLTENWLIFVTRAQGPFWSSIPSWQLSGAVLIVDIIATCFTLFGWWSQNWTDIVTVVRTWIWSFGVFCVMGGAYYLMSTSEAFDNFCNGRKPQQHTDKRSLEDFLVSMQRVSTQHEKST
Protocol: (§1) The proton pumping activity of C. albicans was determined by monitoring acidification of external medium by measuring pH as describe earlier. In brief, the mid-log phase cells were harvested from SD medium by centrifugation at 3000 rpm for 15 min which is followed by three washings with phosphate buffer saline (PBS). A solution containing 0.1 M KCl and 0.1 mM CaCl2 in distilled water was prepared. Compounds 3a and 3b at the concentrations of 50 and 100 μg/mL were separately added in this solution. […] Initial pH was adjusted to 7.0 using 0.01 M HCl/NaOH. Approximately 0.2 g of cells were suspended in each set of solution. Suspension was kept in a double-jacketed glass container with constant stirring. Again, the pH of suspension was maintained as 7.0 for 1 min by using 0.01 N NaOH. The rate of H^+ extrusion was then monitored and calculated from the volume of 0.01 N NaOH consumed per min per mg weight of cells. Glucose has been reported as the stimulator of proton extrusion pump. Therefore above experiment was also repeated in the presence of 5 mM of glucose.

[2] = tested on: C. albicans D27 (FLC-susceptible); test: Disk diffusion assay; type: cell-based; details: 48 h
Protocol: (§2) Disk diffusion assay was performed using C. albicans ATCC 90028 (standard), the two clinical isolates, C. albicans D27 (FLC-susceptible), and C. albicans D15.9 (FLC-resistant) for the lead inhibitors 3a and 3b. The C. albicans cells were inoculated into liquid SD medium and grown over night at 37°C. The cells were then centrifuged at 3000 rpm for 5 min, washed three times with PBS and then suspended in PBS again. Approximately, 10^5 cells/mL were inoculated into molten SD agar medium at 42°C and poured into 100-mm-diameter petriplates. Sterilized 4 mm disks of Whatman paper were placed on solid agar and 1, 2, and 4 μL of 3a and 2, 4, and 8 μL of 3b from the stock solution of 10 mg/mL were spotted on the disk. […] The diameter of zone of inhibition (ZOI) was recorded in millimetres after 48 h and was compared with that of control. This experiment was repeated thrice and values were shown in terms of mean ±standard error of mean.

[3] = tested on: C. albicans ATCC 90028 (Standard); test: Disk diffusion assay; type: cell-based; details: 48 h
Protocol: as §2

[4] = tested on: C. albicans D15.9 (FLC-resistant); test: Disk diffusion assay; type: cell-based; details: 48 h
Protocol: as §2

proteinase secretion [5] = test: Proteinase assay (BSA agar, Pz value); type: cell-based, C. albicans ATCC 90028; details: at MIC, 1 h exposure
Protocol: (§3) Following incubation, 1.5 mL of the yeast culture was taken into micro centrifuge tubes and centrifuged at 3000 rpm, for 5 min. The pellet obtained was washed by phosphate buffer saline (PBS) twice to remove the residual medium. […] Volumes of 1μL were placed at equidistant points on proteinase agar medium (0.1% yeast nitrogen base w/o amino acids; 0.145% ammonium sulfate; 2% glucose with 0.2% (w/v) BSA fraction V mixed into agar at ∼40°C) and incubated at 37°C for 3 days. The experiment was performed in duplicate. Secreted proteinase enzyme will degrade BSA and form zone of clearance around the yeast colonies. An index (Pz value) was used to represent the extent of proteinase activity by different strains of C. albicans. A Pz value of 1.0 depicts no enzyme activity. It was calculated as follows: Pzvalue=diameterofcolony/diameterofcolony+diameterofzoneofdegradation

[6] = biological target: T1, plasma membrane H+ ATPase; test: Proton extrusion measurement (H+ efflux); type: cell-based, C. albicans ATCC 90028
Protocol: as §1

proteinase secretion [7] = test: Proteinase assay (BSA agar, Pz value); type: cell-based, C. albicans D15.9 (FLC-resistant); details: for Decrease of proteinase secretion: at MIC, 1 h exposure
Protocol: as §3

[8] = tested on: C. albicans ATCC 90028, C. albicans D27 and C. albicans D15.9; test: Growth assay (growth curve), all three strains; type: cell-based
Protocol: The C. albicans cells were freshly revived by subculture on the SD agar plate. A loopful of inoculum was introduced into the SD broth and cells were grown for 16 h at 37°C before use. Approximately 2×10^3 cells/mL were then inoculated into the freshly prepared 50 mL sterile SD medium. […] At predetermined time periods (0, 2, 4, 6, 8, 10, 12, 14, 16, 18, 20 22, and 24 after incubation with agitation at 37°C), 1 mL aliquot of each sample was removed from the conical flask and growth was measured tubidometrically at 600 nm using Thermo Multiskan spectrophotometer. Optical density was recorded for each concentration against time (h).

phospholipase secretion = test: Phospholipase assay (egg yolk agar, Pz value); type: cell-based, C. albicans D15.9 (FLC-resistant)
Protocol: Phospholipase activity was performed using the method of Price et al. (1982) with minor modifications. The cells were incubated at 37°C for 18 h and then centrifuged at 3000 rpm for 5 min. The pellet obtained was washed with PBS twice to remove the residual culture medium. […] Volumes of 1 μL were placed at equidistant points on phospholipase agar media plates (1% peptone; 3% glucose; 5.73% NaCl; 0.055% CaCl2 with 10% (v/v) egg yolk emulsion) and incubated at 37°C for 4 days. The secretion of phospholipases was determined by the formation of opaque zones due to precipitation around the yeast colonies. The assay was conducted in duplicate. Pz values were calculated as follows: Pzvalue=diameterofcolony/diameterofcolony+diameterofzoneofprecipitaion

C. albicans = test: Disk diffusion assay, appearance of zones (strains not distinguished); type: cell-based
Protocol: as §2

[9] = 50 μg/mL in presence of glucose (5 mM)
[10] = 100 μg/mL in presence of glucose (5 mM)
[11] = in the presence of glucose (5 mM), 100 μg/mL, read-out: Inhibition of H+ extrusion rate
[12] = read-out: Inhibition of H+ extrusion
[13] = Candida albicans, 40 μg per disk
[14] = Candida albicans, ATCC90028, 20 μg per disk
[15] = Candida albicans, ATCC90028, 40 μg per disk
[16] = 100 μg/mL, no glucose, read-out: Inhibition of H+ extrusion

c1ccc(Cn2cc(COc3cccc4cccnc34)nn2)cc1 [Compound 3a]
Range of relative H+ efflux rate [1, 9]: 21.60 ± 1.0 ×10^−6 mol min^−1 mg cells^−1
Range of relative H+ efflux rate ([1]; 50 μg/mL, no glucose): 20.00 ± 1.0 ×10^−6 mol min^−1 mg cells^−1
Range of relative H+ efflux rate [1, 10]: 19.30 ± 0.9 ×10^−6 mol min^−1 mg cells^−1
Range of relative H+ efflux rate ([1]; 100 μg/mL, no glucose): 16.60 ± 0.8 ×10^−6 mol min^−1 mg cells^−1
inhibition at 100 µg/mL [1, 11]: 52%
inhibition at 100 µg/mL [1, 12]: 45%
Zone of Inhibition ([2]; 40 μg per disk): 26± 0.92 mm
zone of inhibition at 20 µg/disc ([2]; Candida albicans): 19 ± 0.95 mm
zone of inhibition at 10 µg/disc ([2]; Candida albicans, 10 μg per disk): 14 ± 0.7 mm
zone of inhibition at 40 µg/disc [2, 13]: 26 mm
Zone of Inhibition ([3]; 20 μg per disk): 35± 0.97 mm
Zone of Inhibition ([3]; 40 μg per disk): 39± 1.12 mm
zone of inhibition at 10 µg/disc ([3]; Candida albicans, ATCC90028, 10 μg per disk): 28 ± 0.72 mm
zone of inhibition at 20 µg/disc [3, 14]: 35 mm
zone of inhibition at 40 µg/disc [3, 15]: 39 mm
Zone of Inhibition ([4]; 20 μg per disk): 26± 073 mm
Zone of Inhibition ([4]; 40 μg per disk): 32± 1.28 mm
zone of inhibition at 10 µg/disc ([4]; Candida albicans): 20 ± 0.21 mm
zone of inhibition at 20 µg/disc ([4]; Candida albicans): 26 mm
zone of inhibition at 40 µg/disc ([4]; Candida albicans): 32 mm
Decrease of proteinase secretion (proteinase secretion [5]): 21%
Range of relative H+ efflux rate [6, 9]: 33.40 ± 1.6 ×10^−6 mol min^−1 mg cells^−1
Range of relative H+ efflux rate ([6]; 50 μg/mL, no glucose): 19.60 ± 0.9 ×10^−6 mol min^−1 mg cells^−1
Range of relative H+ efflux rate [6, 10]: 26.60 ± 1.3 ×10^−6 mol min^−1 mg cells^−1
Range of relative H+ efflux rate ([6]; 100 μg/mL, no glucose): 11.00 ± 0.5 ×10^−6 mol min^−1 mg cells^−1
inhibition at 100 µg/mL [6, 16]: 70%
inhibition at 100 µg/mL [6, 11]: 52%
Decrease of proteinase secretion (fold) (proteinase secretion [7]; Fig 4 legend): two fold
Decrease of proteinase secretion (proteinase secretion [7]): 45%
Lag phase (no growth) ([8]; 2MIC, MIC and MIC/2, all three strains): more than 24 h
Decrease of phospholipase secretion (phospholipase secretion; at MIC, 1 h exposure): 34%
Decrease of phospholipase secretion (phospholipase secretion; at MIC/4, 1 h exposure): 25%
Appearance of zone around disks (clear = fungicidal nature, turbid = fungistatic nature) (C. albicans): clear

Clc1ccc(OCc2cn(Cc3ccccc3)nn2)c2ncccc12 [Compound 3b, 8-((1-Benzyl-1H-1,2,3-triazol-4-yl)methoxy)-5-chloroquinoline]
Range of relative H+ efflux rate [1, 9]: 22.30 ± 1.1 ×10^−6 mol min^−1 mg cells^−1
Range of relative H+ efflux rate ([1]; 50 μg/mL, no glucose): 17.60 ± 0.8 ×10^−6 mol min^−1 mg cells^−1
Range of relative H+ efflux rate [1, 10]: 19.30 ± 0.9 ×10^−6 mol min^−1 mg cells^−1
Range of relative H+ efflux rate ([1]; 100 μg/mL, no glucose): 16.00 ± 0.8 ×10^−6 mol min^−1 mg cells^−1
inhibition at 100 µg/mL [1, 11]: 52%
inhibition at 100 µg/mL [1, 12]: 65%
Zone of Inhibition ([2]; 80 μg per disk): 26± 1.17 mm
zone of inhibition at 20 µg/disc ([2]; Candida albicans, 20 μg per disk, read-out: Zone of Inhibition): 16 ± 0.54 mm
zone of inhibition at 40 µg/disc [2, 13]: 18 ± 0.87 mm
zone of inhibition at 80 µg/disc ([2]; Candida albicans, 80 μg per disk): 26 mm
Zone of Inhibition ([3]; 80 μg per disk): 29± 0.93 mm
zone of inhibition at 20 µg/disc [3, 14]: 18 ± 0.72 mm
zone of inhibition at 40 µg/disc [3, 15]: 25 ± 0.9 mm
zone of inhibition at 80 µg/disc ([3]; Candida albicans, ATCC90028, 80 μg per disk): 29 mm
Zone of Inhibition ([4]; 80 μg per disk): 22± 0.79 mm
zone of inhibition at 20 µg/disc ([4]; Candida albicans): 15 ± 0.21 mm
zone of inhibition at 40 µg/disc ([4]; Candida albicans): 18 ± 0.09 mm
zone of inhibition at 80 µg/disc ([4]; Candida albicans): 22 mm
Decrease of proteinase secretion (proteinase secretion [5]): 14%
Range of relative H+ efflux rate [6, 9]: 23.30 ± 1.1 ×10^−6 mol min^−1 mg cells^−1
Range of relative H+ efflux rate ([6]; 50 μg/mL, no glucose): 23.40 ± 1.1 ×10^−6 mol min^−1 mg cells^−1
Range of relative H+ efflux rate [6, 10]: 20.00 ± 1.0 ×10^−6 mol min^−1 mg cells^−1
Range of relative H+ efflux rate ([6]; 100 μg/mL, no glucose): 19.30 ± 0.9 ×10^−6 mol min^−1 mg cells^−1
inhibition at 100 µg/mL [6, 16]: 47%
inhibition at 100 µg/mL [6, 11]: 64%
Decrease of proteinase secretion (proteinase secretion [7]): 23.5%
Growth inhibition ([8]; at 2MIC and MIC): significant growth inhibition
Decrease of phospholipase secretion (phospholipase secretion; at MIC, 1 h exposure): 30%
Decrease of phospholipase secretion (phospholipase secretion; at MIC/4, 1 h exposure): 25%
Appearance of zone around disks (clear = fungicidal nature, turbid = fungistatic nature) (C. albicans): turbid
